Experimental data published in PubChem BioAssay (NCI).
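Protocol summary: plate cells (96-well), add compound at 5 concentrations, incubate 48 h, interpolate endpoints linearly. At the GI50, growth is halved. TGI denotes the concentration required for complete inhibition of growth.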

Columns and labels:
Test in all cases: NCI tumour cell line growth inhibition, 48 h
[1] = system: SF-268 CNS
[2] = system: RXF 393 renal
[3] = system: NCI-H522 lung
[4] = system: RPMI-8226 leukemia
[5] = system: SK-MEL-28 melanoma
[6] = system: SW-620 colon
[7] = system: A498 renal
[8] = system: HCT-15 colon
[9] = system: K-562 leukemia
[10] = system: ACHN renal
[11] = system: HS 578T breast
[12] = system: UACC-257 melanoma
[13] = system: NCI-H226 lung
[14] = system: LOX IMVI melanoma
[15] = system: UACC-62 melanoma
[16] = system: MDA-MB-468 breast
[17] = system: MDA-MB-435
[18] = system: SR leukemia
[19] = system: SNB-19 CNS
[20] = system: M14 melanoma
[21] = system: MALME-3M melanoma
[22] = system: CCRF-CEM leukemia
[23] = system: CAKI-1 renal
[24] = system: T-47D breast
[25] = system: OVCAR-4 ovarian
[26] = system: NCI/ADR-RES ovarian
[27] = system: U251 CNS
[28] = system: UO-31 renal
[29] = system: HOP-62 NSCLC
[30] = system: OVCAR-8 ovarian
[31] = system: HOP-92 NSCLC
[32] = system: MOLT-4 leukemia
[33] = system: HL-60(TB) leukemia
[34] = system: OVCAR-5 ovarian
[35] = system: SNB-75 CNS
[36] = system: HCC-2998 colon
[37] = system: MCF7 breast
[38] = system: SK-OV-3 ovarian
[39] = system: A549 NSCLC
[40] = system: MDA-MB-231 breast
[41] = system: HT29 colon
[42] = system: IGROV1 ovarian
[43] = system: NCI-H460 lung
[44] = system: DU-145 prostate
[45] = system: SF-539 CNS
[46] = system: SK-MEL-5 melanoma
[47] = system: BT-549 breast
[48] = system: TK-10 renal
[49] = system: 786-0 renal
[50] = system: SK-MEL-2 melanoma
[51] = system: SN12C renal
[52] = system: KM12 colon
[53] = system: OVCAR-3 ovarian
[54] = system: SF-295 CNS
[55] = system: EKVX NSCLC
[56] = system: HCT-116 colon
[57] = system: NCI-H23 lung
[58] = system: PC-3 prostate
[59] = system: COLO 205 colon

Q: Which GI50 [1] does the source give for `CCCCSc1nc(Nc2ccc(/C(C)=N/NC(N)=S)cc2)c(C#N)c(-c2ccc(OC)cc2)n1` here?
A: 26 µM

Q: What about the TGI [1] of the same molecule?
A: > 100 µM

Q: And the GI50 [2]?
A: 5.2 µM

Q: And the TGI [2]?
A: 18.1 µM

Q: And the GI50 [3]?
A: 13.9 µM

Q: And the TGI [3]?
A: 28.6 µM

Q: What about the GI50 [4] of the same molecule?
A: 45.7 µM

Q: And the TGI [4]?
A: > 100 µM

Q: And the GI50 [5]?
A: 35.8 µM

Q: What about the TGI [5] of the same molecule?
A: > 100 µM

Q: And the GI50 [6]?
A: > 100 µM

Q: And the TGI [6]?
A: > 100 µM

Q: What about the GI50 [7] of the same molecule?
A: 10.6 µM

Q: And the TGI [7]?
A: 22.4 µM

Q: And the GI50 [8]?
A: > 100 µM

Q: What about the TGI [8] of the same molecule?
A: > 100 µM

Q: And the GI50 [9]?
A: > 100 µM

Q: And the TGI [9]?
A: > 100 µM

Q: And the GI50 [10]?
A: 15.3 µM

Q: What about the TGI [10] of the same molecule?
A: 28.5 µM

Q: And the GI50 [11]?
A: 2.78 µM

Q: What about the TGI [11] of the same molecule?
A: 16.4 µM

Q: And the GI50 [12]?
A: > 100 µM

Q: What about the TGI [12] of the same molecule?
A: > 100 µM

Q: And the GI50 [13]?
A: 11.9 µM

Q: And the TGI [13]?
A: 27.5 µM

Q: What about the GI50 [14] of the same molecule?
A: 3.9 µM

Q: What about the TGI [14] of the same molecule?
A: 17.9 µM

Q: And the GI50 [15]?
A: 15.6 µM

Q: And the TGI [15]?
A: 34.1 µM

Q: What about the GI50 [16] of the same molecule?
A: 18.1 µM

Q: What about the TGI [16] of the same molecule?
A: 49.1 µM

Q: And the GI50 [17]?
A: 36.9 µM

Q: And the TGI [17]?
A: > 100 µM

Q: And the GI50 [18]?
A: 57.1 µM

Q: What about the TGI [18] of the same molecule?
A: > 100 µM

Q: And the GI50 [19]?
A: 14.3 µM

Q: What about the TGI [19] of the same molecule?
A: 27.3 µM

Q: And the GI50 [20]?
A: 8.52 µM

Q: What about the TGI [20] of the same molecule?
A: > 100 µM

Q: What about the GI50 [21] of the same molecule?
A: 5.85 µM

Q: What about the TGI [21] of the same molecule?
A: 20 µM

Q: What about the GI50 [22] of the same molecule?
A: > 100 µM

Q: What about the TGI [22] of the same molecule?
A: > 100 µM

Q: And the GI50 [23]?
A: 18.3 µM

Q: And the TGI [23]?
A: 54.1 µM

Q: And the GI50 [24]?
A: 12.5 µM

Q: And the TGI [24]?
A: 36.7 µM

Q: And the GI50 [25]?
A: 6.45 µM

Q: What about the TGI [25] of the same molecule?
A: 62.4 µM

Q: What about the GI50 [26] of the same molecule?
A: 5.76 µM

Q: And the TGI [26]?
A: > 100 µM

Q: And the GI50 [27]?
A: 6.88 µM

Q: What about the TGI [27] of the same molecule?
A: 19.9 µM

Q: And the GI50 [28]?
A: 2.81 µM

Q: And the TGI [28]?
A: 18.6 µM

Q: What about the GI50 [29] of the same molecule?
A: 15.6 µM

Q: And the TGI [29]?
A: 30.1 µM

Q: And the GI50 [30]?
A: 10.8 µM

Q: What about the TGI [30] of the same molecule?
A: 24 µM

Q: What about the GI50 [31] of the same molecule?
A: 5.36 µM

Q: What about the TGI [31] of the same molecule?
A: 21.1 µM

Q: And the GI50 [32]?
A: > 100 µM

Q: And the TGI [32]?
A: > 100 µM

Q: And the GI50 [33]?
A: > 100 µM

Q: What about the TGI [33] of the same molecule?
A: > 100 µM

Q: What about the GI50 [34] of the same molecule?
A: 28.1 µM

Q: And the TGI [34]?
A: 93.9 µM

Q: What about the GI50 [35] of the same molecule?
A: 10.4 µM

Q: What about the TGI [35] of the same molecule?
A: 78.3 µM

Q: What about the GI50 [36] of the same molecule?
A: 78.4 µM

Q: And the TGI [36]?
A: > 100 µM

Q: And the GI50 [37]?
A: 17.1 µM

Q: And the TGI [37]?
A: > 100 µM

Q: What about the GI50 [38] of the same molecule?
A: 18 µM

Q: What about the TGI [38] of the same molecule?
A: 32.1 µM

Q: And the GI50 [39]?
A: 16.5 µM

Q: What about the TGI [39] of the same molecule?
A: 40.9 µM

Q: What about the GI50 [40] of the same molecule?
A: 2.27 µM

Q: And the TGI [40]?
A: 8.21 µM

Q: What about the GI50 [41] of the same molecule?
A: > 100 µM

Q: What about the TGI [41] of the same molecule?
A: > 100 µM

Q: And the GI50 [42]?
A: 19.5 µM

Q: And the TGI [42]?
A: 40 µM

Q: What about the GI50 [43] of the same molecule?
A: 9.33 µM

Q: What about the TGI [43] of the same molecule?
A: 31.1 µM

Q: And the GI50 [44]?
A: 10.2 µM

Q: What about the TGI [44] of the same molecule?
A: > 100 µM

Q: What about the GI50 [45] of the same molecule?
A: 3.14 µM

Q: What about the TGI [45] of the same molecule?
A: 12.8 µM

Q: What about the GI50 [46] of the same molecule?
A: 3.61 µM

Q: And the TGI [46]?
A: 17 µM

Q: What about the GI50 [47] of the same molecule?
A: 6.55 µM

Q: What about the TGI [47] of the same molecule?
A: 26.9 µM

Q: What about the GI50 [48] of the same molecule?
A: 13.8 µM

Q: What about the TGI [48] of the same molecule?
A: 27.4 µM

Q: And the GI50 [49]?
A: 3.07 µM

Q: What about the TGI [49] of the same molecule?
A: 10.9 µM

Q: What about the GI50 [50] of the same molecule?
A: 26.3 µM

Q: What about the TGI [50] of the same molecule?
A: 85.4 µM

Q: What about the GI50 [51] of the same molecule?
A: 18.7 µM

Q: What about the TGI [51] of the same molecule?
A: 37 µM

Q: And the GI50 [52]?
A: > 100 µM

Q: What about the TGI [52] of the same molecule?
A: > 100 µM

Q: And the GI50 [53]?
A: 21.5 µM

Q: And the TGI [53]?
A: 44.3 µM

Q: And the GI50 [54]?
A: 10.1 µM

Q: What about the TGI [54] of the same molecule?
A: 22.6 µM

Q: And the GI50 [55]?
A: 56.4 µM

Q: What about the TGI [55] of the same molecule?
A: > 100 µM

Q: And the GI50 [56]?
A: 6.79 µM

Q: And the TGI [56]?
A: 30 µM

Q: And the GI50 [57]?
A: 6.46 µM

Q: And the TGI [57]?
A: 19 µM

Q: What about the GI50 [58] of the same molecule?
A: > 100 µM

Q: What about the TGI [58] of the same molecule?
A: > 100 µM

Q: And the GI50 [59]?
A: > 100 µM

Q: What about the TGI [59] of the same molecule?
A: > 100 µM
